The source of these data is patent publication US7737169B2, “Anionically substituted 7-nitroindoline derivatives and their uses” (Medical Research Council, priority 2005, dated 2010).

The test system of one assay is GABA channels. The assay is described as follows: photolytic release of GABA onto neuronal cells, current responses (FIG. 1). The class given is cell-based. The source says: FIG. 1. Current responses to photolytic release of GABA from various concentrations of 6 onto two different neuronal cells, as specified in the FIGURE. The experimental set-up and protocol was as described in reference 4.
A previous evaluation of nitroindoline-caged amino acids in neural tissue has been published^4. […] Tests described here were to assess the photolytic efficiency of GABA release in a neurophysiological experiment with particular attention to point (3), namely the presence or absence of interference of the new caged GABA with GABA-activated channels. If interference is low the expectation is that the rise-time of the receptor activation by photoreleased GABA in the presence of high cage concentration should be similar to that generated by endogenously released GABA, rising in 1-2 ms.

In the next assay the test system is GABA receptors. Particulars: caged ester before photolysis; cited from earlier work.

Regarding `NCCCC(=O)N1CCc2c(OC(COP(=O)(O)O)COP(=O)(O)O)ccc([N+](=O)[O-])c21` [Compound 6, 1-(4-Aminobutanoyl)-4-[1,3-bis(dihydroxyphosphoryloxy)propan-2-yloxy]-7-nitroindoline], in the assay with GABA channels (0.5 mM GABA released, 1.5 mM caged GABA present, FIG. 1 left panel), the “rise-time of current through GABA channels” value came out at 1 ms. For the same compound, the “amplitude and rate of rise of currents through GABA channels” value with GABA channels (20-200 μm GABA released by different photolysis intensities, 1.4 mM caged GABA present, FIG. 1 right panel) is “increasing amplitudes and rates of rise at high concentration”.

As to `NCCCC(=O)OC(C(=O)O)c1ccccc1[N+](=O)[O-]` (stereo not drawn) [Compound 5, α-carboxy-2-nitrobenzyl ester of GABA], in the assay with GABA receptors, the pharmacological effects entry is given as “no pharmacological effects”.
